In US10550399B2, “Plant transformation method using plant growth inhibiting hormone” (KANEKA CORPORATION, priority 2012, dated 2020):

Tests used:
wheat seeds [1] = experiment: In planta Agrobacterium (LBA4404, pIG121-1) transformation of wheat seeds under application of a plant growth-inhibiting hormone; type: in vivo, wheat (Triticum aestivum L.)
[2] = test system: soybeans, variety "Toyomusume"; experiment: In planta transformation of soybeans using the Agrobacterium tumefaciens M21 mutant with abscisic acid; type: in vivo, soybean (Glycine max); details: abscisic acid 100 μM
Method: Plant transformation was carried out in the same manner as in Example 8, except that the Agrobacterium tumefaciens M21 mutant was used, and then gene introduction in the T0 generation was verified.
The Agrobacterium tumefaciens M21 mutant (hereafter referred to as “the M21 mutant”) was obtained via mutation of the Agrobacterium tumefaciens A208 strain (C58 chromosome, nopaline T37 pTi) with the use of transposon 5 (Tn5) (Majumder, P. et al., J. Biosci. Bioeng., 90: 328-331, 2000; WO 2005/024034). In the M21 mutant, Tn5 is inserted into the tryptophan monooxygenase gene involved in biosynthesis of indoleacetic acid (IAA) in the T-DNA region of the Ti plasmid. This would cause hormone imbalance in plants transformed via infection with the M21 mutant, which would lead to phenotypic changes. Thus, the presence or absence of the transformation was easily determined via visual inspection.
Transformation efficiency (T0 generation) achieved by the method of the present invention was 75%.

maize seed = experiment: In planta transformation of maize seeds using pIG121-1-carrying Agrobacterium with abscisic acid; type: in vivo, maize (Zea mays); details: abscisic acid 100 μM
Method: Seeds of maize (Zea mays) were washed with sterile water 2 or 3 times to wash the red disinfectant away from the seed coat. The washed seeds were soaked in sterile water and incubated at 25° C. for 2 days. Water was exchanged with fresh water once during incubation. Thus, the seeds absorbed water and the embryonic portions became white. These seeds were used for the experiment described below. A bacterial solution containing pIG121-1-carrying Agrobacterium and abscisic acid (final concentration: 100 μM) was prepared as an Agrobacterium solution for inoculation in the same manner as in Example 1.
With the use of a needle (φ 0.71 mm), the shoot (length: 1 mm) of the embryo (longer diameter: about 1 cm) of the maize seed was pierced 4 times on the apex, in which the meristem was considered to be present, to a depth of 0.5 mm to 1 mm to provide 4 pores in an area of about 2 mm square. Thereafter, the Agrobacterium solution for inoculation prepared above was applied dropwise to the pores using a pipette to inoculate the seeds with Agrobacterium.
Subsequently, a filter paper was placed in a petri dish and moistened with water. The maize seeds inoculated with Agrobacterium were placed on the filter paper and the petri dish was covered. The petri dish was then placed in an incubator at 25° C., and incubation was carried out in the dark for 2 days. After co-culture was conducted for 2 days, the seeds were sowed in culture soil and grown.
Gene introduction in the T0 generation was verified in the same manner as in Example 1. Plants (5-leaf stage) 20 days after transformation were used for genomic PCR. […] A 544-bp PCR product indicating GUS gene introduction was detected in 2 plants.

wheat seeds [3] = experiment: In planta Agrobacterium (LBA4404, pIG121-1) transformation of wheat seeds under application of a plant growth-inhibiting hormone; type: in vivo, wheat (Triticum aestivum L.); details: for Transformation efficiency (T0 generation×T1 generation): hormone 100 μM in bacterial solution, variety Yumechikara, shoot length about 2 mm, soaked about 20 min, co-culture 22° C. 2 days
Method: Transformation efficiency for the transformed plant thus obtained can be determined. Transformation efficiency (T0 generation×T1 generation) is determined by multiplying transformation efficiency for the T0 generation (the number of transformed plants of T0 generation/the number of plants subjected to transformation) and transformation efficiency for the T1 generation (the number of transformed plants of T1 generation/(the number of plants of T1 generation subjected to the verification for incorporation of foreign genes into genomes).
The Agrobacterium into which pIG121-1 had been introduced prepared above were cultured in LB medium containing kanamycin and streptomycin (50 mg/1 each) at 28° C. for 18 hours to prepare an Agrobacterium solution. Through this culture, the transformed Agrobacterium carrying pIG121-1 were selected on the basis of functions of the kanamycin resistance gene and the streptomycin resistance gene existing outside the T-DNA region of pIG121-1.
Abscisic acid (final concentration: 100 μM) was added to the bacterial solution prepared in the manner described above, and the resulting bacterial solution was used below as an Agrobacterium solution for inoculation.
Pretreatment of seeds was carried out by soaking wheat seeds (variety: Yumechikara (Wheat Nourin 172)) in 70% ethanol for 5 minutes, followed by shaking in a 20% antiformin solution for 10 minutes. The seeds were washed with water to remove the antiformin solution, wrapped in moistened Kim towel, and then cultured at 25° C. for 36 to 40 hours for germination.
Subsequently, a portion around the shoot of the seed (shoot length: about 2 mm) was pierced with a needle (diameter: 0.71 mm) to a depth of about 1 mm to provide a pore. The seeds with thus wounded meristems were soaked in the Agrobacterium solution prepared above for about 20 minutes to inoculate the seeds with the Agrobacterium. Thereafter, the seeds were removed from the Agrobacterium solution, mounted on moistened Kim towel, and then cultured in a covered petri dish at 22° C. for 2 days (co-culture). Thus, the seeds were infected with Agrobacterium. Next, in order to disinfect Agrobacterium, the co-cultured seeds were soaked in an aqueous solution of cefotaxime (1,000 ppm) and then shaken at room temperature for 2 hours. Subsequently, the seeds were removed from the aqueous solution of cefotaxime, mounted on moistened Kim towel, and then grown in a covered petri dish at 25° C. for 2 days. The seeds were transferred to a pot containing culture soil and then grown at 25° C. under the long-day conditions (a light period of 16 hours and a dark period of 8 hours).
When the seeds grew to the 5- to 6-leaf stage, genome PCR was carried out to select transformants.
Considering that Yumechikara is an autumn wheat variety, the obtained transformants were subjected to vernalization at 4° C. for 1.5 months to facilitate flower bud formation. Subsequently, the transformants (T0 generation) were self-crossed to obtain T1 seeds, and gene introduction and gene expression in the T1 generation were verified.
Gene introduction at the T1 generation was verified via genome PCR under the same conditions as with the case of the T0 generation. […] A band of interest was detected in 3 of the 14 individuals subjected to the genome PCR.
Jasmonic acid (final concentration: 100 μM) was added to the bacterial solution prepared in the manner described above, and the resulting bacterial solution was used below as an Agrobacterium solution for inoculation.
Subsequently, a portion around the shoot of the seed (shoot length: about 2 mm) was pierced with a needle (diameter: 0.71 mm) to a depth of about 1 mm to provide a pore. The seeds with thus wound meristems were soaked in the Agrobacterium solution prepared above for about 20 minutes to inoculate the seeds with the Agrobacterium. […]

[4] = test system: soybeans, variety "Toyomusume"; experiment: In planta Agrobacterium (LBA4404, pIG121-1) transformation of soybean axillary buds with abscisic acid; type: in vivo, soybean (Glycine max); details: abscisic acid 100 μM, axillary buds of plants 14 days after germination
Method: Plant transformation was carried out in the same manner as in Example 1, except that a variety “Toyomusume” of soybeans was used and axillary buds of the plants 14 days after germination were inoculated with Agrobacterium, and then gene introduction and gene expression in the T0 generation were verified.

[5] = 12 plants subjected to transformation
[6] = 13 plants subjected to transformation
[7] = abscisic acid 100 μM, Yumechikara, shoot about 2 mm, co-culture 22° C., genome PCR

Structure (SMILES) | Transformation efficiency (T0 generation×T1 generation) (wheat seeds [1]; abscisic acid 100 μM and Tween 20 0.1%, Yumechikara, shoot 1 mm or less, vacuum treatment 20 min, co-culture 28° C.) | Transformation efficiency (T0 generation×T1 generation) (wheat seeds [1]; abscisic acid 100 μM, Tween 20 0.1%, acetosyringone 100 μM, Yumechikara, shoot 1 mm or less, vacuum treatment, co-culture 28° C.) | Transformation efficiency (T0 generation×T1 generation) (wheat seeds [1]; as Example 4 (abscisic acid 100 μM, Tween 20, acetosyringone, vacuum, 28° C.) but wheat variety Haruyokoi) | Transformation efficiency (T0 generation×T1 generation) (wheat seeds [1]; as Example 4 but 10 μM abscisic acid, Yumechikara) | Transformation efficiency (T0 generation×T1 generation) (wheat seeds [1]; as Example 4 but 300 μM abscisic acid, Yumechikara) | Number of transformed plants [2, 5] | Number of untransformed plants [2, 5] | Untransformed plants, percent [2, 5] | Transformation efficiency (T0 generation) ([2]; axillary buds, tumorigenesis by visual inspection, 12 plants) | Number of untransformed plants (maize seed; [6]) | Untransformed plants, percent (maize seed; [6]) | Number of transformed plants (maize seed; 13 plants subjected to transformation, 544-bp GUS PCR product) | Transformation efficiency (T0 generation) (maize seed; shoot 1 mm pierced 4 times, co-culture 25° C. 2 days, genomic PCR 20 days after transformation, 13 plants) | Transformation efficiency (T0) (wheat seeds [3]; [7]) | Transformation efficiency (T1) (wheat seeds [3]; [7]) | Individuals with band of interest, T1 generation (wheat seeds [3]; abscisic acid 100 μM, of the 14 individuals subjected to genome PCR) | Individuals with GUS gene band (544 bp), T0 generation (wheat seeds [3]; abscisic acid 100 μM, of the 14 transformed individuals, genome PCR) | Transformation efficiency (T0 generation×T1 generation) (wheat seeds [3]) | Transformation efficiency (T0 generation) [4]
CC1=CC(=O)CC(C)(C)[C@@]1(O)/C=C/C(C)=C\C(=O)O [abscisic acid] | 5.1% | 7.2% | 10.2% | 6.3% | 7.0% | 9 | 3 | 25% | 75% | 11 | 84.6% | 2 | 15.4% | 14.3% | 21.4% | 3 | 2 | 3.1% | 30%
CC/C=C\C[C@H]1C(=O)CC[C@@H]1CC(=O)O [jasmonic acid] | – | – | – | – | – | – | – | – | – | – | – | – | – | – | – | – | – | 2.4% | –
